Reference: the NIST ThermoML archive (doi:10.1016/j.jct.2011.02.012)
± gives the expanded uncertainty stated by the source.

Experiment: activity coefficient (dimensionless); of the first substance listed, at infinite dilution; xn = mol fraction of the nth substance listed
Conditions: Liquid, Chromatography, x1 = 0

Structure (SMILES)	activity coefficient (298.15 K)	activity coefficient (308.15 K)	activity coefficient (318.15 K)	activity coefficient (328.15 K)	activity coefficient (338.15 K)	activity coefficient (348.15 K)	activity coefficient (358.15 K)
CCc1ccccc1 [ethylbenzene] + CCn1cc[n+](C)c1.N#C[B-](C#N)(C#N)C#N	2.6 ± 0.18	2.6 ± 0.18	2.61 ± 0.18	2.61 ± 0.18	2.61 ± 0.18	2.61 ± 0.18	2.61 ± 0.18
CCCCCCCCCC [decane] + CCn1cc[n+](C)c1.N#C[B-](C#N)(C#N)C#N	203 ± 14	177 ± 12	156 ± 11	137 ± 9	122 ± 8	108 ± 7	96.7 ± 6.6
COC(C)(C)C [2-methoxy-2-methylpropane] + CCn1cc[n+](C)c1.N#C[B-](C#N)(C#N)C#N	2.82 ± 0.19	2.86 ± 0.19	2.9 ± 0.2	2.94 ± 0.2	2.97 ± 0.2	3.01 ± 0.2	3.04 ± 0.21
Cc1ccc(C)cc1 [1,4-dimethylbenzene] + CCn1cc[n+](C)c1.N#C[B-](C#N)(C#N)C#N			2.45 ± 0.17	2.48 ± 0.17	2.5 ± 0.17	2.52 ± 0.17	2.54 ± 0.17
CCCCC(C)=O [2-hexanone] + CCn1cc[n+](C)c1.N#C[B-](C#N)(C#N)C#N		1.11 ± 0.07	1.12 ± 0.07	1.14 ± 0.07	1.16 ± 0.07	1.17 ± 0.07	1.09 ± 0.07
Cc1ccccc1 [toluene] + CCn1cc[n+](C)c1.N#C[B-](C#N)(C#N)C#N	1.65 ± 0.11	1.67 ± 0.11	1.69 ± 0.11	1.71 ± 0.11	1.73 ± 0.12	1.75 ± 0.12	1.76 ± 0.12
C1CCCCCC1 [cycloheptane] + CCn1cc[n+](C)c1.N#C[B-](C#N)(C#N)C#N	21.9 ± 1.5	19.9 ± 1.4	18.6 ± 1.3	17 ± 1.2	15.8 ± 1.1	14.8 ± 1	13.9 ± 1
C1CCCC1 [cyclopentane] + CCn1cc[n+](C)c1.N#C[B-](C#N)(C#N)C#N	10.7 ± 0.7	9.9 ± 0.7	9.5 ± 0.7	8.8 ± 0.6	8.4 ± 0.6	8 ± 0.5	7.6 ± 0.5
C1=CCCCC1 [cyclohexene] + CCn1cc[n+](C)c1.N#C[B-](C#N)(C#N)C#N	7.25 ± 0.49	6.92 ± 0.47	6.67 ± 0.45	6.44 ± 0.44	6.17 ± 0.42	6.01 ± 0.41	5.81 ± 0.4
C=CCCC [1-pentene] + CCn1cc[n+](C)c1.N#C[B-](C#N)(C#N)C#N	9.24 ± 0.63	8.83 ± 0.6	8.56 ± 0.58	8.24 ± 0.56	7.97 ± 0.54	7.71 ± 0.53	7.52 ± 0.51
CC(C)=O [acetone] + CCn1cc[n+](C)c1.N#C[B-](C#N)(C#N)C#N		0.443 ± 0.036	0.454 ± 0.036	0.466 ± 0.036	0.475 ± 0.037	0.488 ± 0.037	0.43 ± 0.035
CCCC(=O)CC [3-hexanone] + CCn1cc[n+](C)c1.N#C[B-](C#N)(C#N)C#N		1.2 ± 0.08	1.22 ± 0.08	1.24 ± 0.08	1.25 ± 0.08	1.28 ± 0.08	1.17 ± 0.07
CCC(C)(C)OC [2-methoxy-2-methylbutane] + CCn1cc[n+](C)c1.N#C[B-](C#N)(C#N)C#N	4.15 ± 0.28	4.19 ± 0.29	4.22 ± 0.29	4.25 ± 0.29	4.28 ± 0.29	4.3 ± 0.29	4.32 ± 0.29
C1CCCCCCC1 [cyclooctane] + CCn1cc[n+](C)c1.N#C[B-](C#N)(C#N)C#N	29.7 ± 2	26.6 ± 1.8	24.7 ± 1.7	22.5 ± 1.5	20.8 ± 1.4	19.2 ± 1.3	17.9 ± 1.2
c1ccccc1 [benzene] + CCn1cc[n+](C)c1.N#C[B-](C#N)(C#N)C#N	1.13 ± 0.07	1.15 ± 0.07	1.17 ± 0.07	1.18 ± 0.08	1.19 ± 0.08	1.2 ± 0.08	1.21 ± 0.08
Cc1ccccc1C [1,2-dimethylbenzene] + CCn1cc[n+](C)c1.N#C[B-](C#N)(C#N)C#N	2.17 ± 0.15	2.18 ± 0.15	2.2 ± 0.15	2.21 ± 0.15	2.22 ± 0.15	2.24 ± 0.15	2.25 ± 0.15
CCCCO [butan-1-ol] + CCn1cc[n+](C)c1.N#C[B-](C#N)(C#N)C#N	2.72 ± 0.19	2.41 ± 0.16	2.16 ± 0.15	1.95 ± 0.13	1.79 ± 0.12	1.65 ± 0.11	1.53 ± 0.1
C#CCCCC [1-hexyne] + CCn1cc[n+](C)c1.N#C[B-](C#N)(C#N)C#N	3.77 ± 0.26	3.76 ± 0.26	3.76 ± 0.26	3.75 ± 0.26	3.74 ± 0.25	3.74 ± 0.25	3.73 ± 0.25
C1CCCCC1 [cyclohexane] + CCn1cc[n+](C)c1.N#C[B-](C#N)(C#N)C#N	16.7 ± 1.1	15.2 ± 1	14.3 ± 1	13.2 ± 0.9	12.3 ± 0.8	11.6 ± 0.8	10.9 ± 0.7

Results, then the compound that gave them:

activity coefficient (298.15 K)	activity coefficient (308.15 K)	activity coefficient (318.15 K)	activity coefficient (328.15 K)	activity coefficient (338.15 K)	activity coefficient (348.15 K)	activity coefficient (358.15 K)	Structure (SMILES)
24.9 ± 1.7	22.7 ± 1.6	21.1 ± 1.4	19.4 ± 1.3	18 ± 1	16.9 ± 1.2	15.9 ± 1.1	CC1CCCCC1 [methylcyclohexane] + CCn1cc[n+](C)c1.N#C[B-](C#N)(C#N)C#N
1.1 ± 0.07	1.02 ± 0.06	0.948 ± 0.06	0.886 ± 0.056	0.835 ± 0.054	0.788 ± 0.051	0.748 ± 0.049	CO [methanol] + CCn1cc[n+](C)c1.N#C[B-](C#N)(C#N)C#N
33.8 ± 2.3	30.7 ± 2.1	28.9 ± 2	26.3 ± 1.8	24.5 ± 1.7	23.1 ± 1.6	21.8 ± 1.5	CCCCCC [hexane] + CCn1cc[n+](C)c1.N#C[B-](C#N)(C#N)C#N
35 ± 2.4	32 ± 2.2	29.9 ± 2	27.8 ± 1.9	25.9 ± 1.8	24.5 ± 1.7	23.1 ± 1.6	C=CCCCCCC [oct-1-ene] + CCn1cc[n+](C)c1.N#C[B-](C#N)(C#N)C#N
14.4 ± 1	13.5 ± 0.9	12.9 ± 0.9	12.2 ± 0.8	11.6 ± 0.8	11.2 ± 0.8	10.6 ± 0.7	C=CCCCC [hex-1-ene] + CCn1cc[n+](C)c1.N#C[B-](C#N)(C#N)C#N
	0.798 ± 0.052	0.821 ± 0.053	0.842 ± 0.054	0.861 ± 0.055	0.883 ± 0.056	0.771 ± 0.05	CCC(=O)CC [pentan-3-one] + CCn1cc[n+](C)c1.N#C[B-](C#N)(C#N)C#N
	0.816 ± 0.053	0.833 ± 0.054	0.847 ± 0.054	0.861 ± 0.055	0.879 ± 0.056	0.796 ± 0.052	CCCC(C)=O [pentan-2-one] + CCn1cc[n+](C)c1.N#C[B-](C#N)(C#N)C#N
0.686 ± 0.046	0.707 ± 0.047	0.726 ± 0.048	0.737 ± 0.049	0.753 ± 0.05	0.775 ± 0.051	0.789 ± 0.051	C1CCOC1 [tetrahydrofuran] + CCn1cc[n+](C)c1.N#C[B-](C#N)(C#N)C#N
2.24 ± 0.15	1.99 ± 0.14	1.82 ± 0.12	1.66 ± 0.11	1.51 ± 0.1	1.38 ± 0.09	1.29 ± 0.08	O [water] + CCn1cc[n+](C)c1.N#C[B-](C#N)(C#N)C#N
131 ± 9	114 ± 8	102 ± 7	90.2 ± 6.2	81.1 ± 5.6	73.2 ± 5	66.3 ± 4.5	CCCCCCCCC [nonane] + CCn1cc[n+](C)c1.N#C[B-](C#N)(C#N)C#N
22 ± 1.5	20.1 ± 1.4	19.1 ± 1.3	17.6 ± 1.2	16.6 ± 1.1	15.8 ± 1.1	14.9 ± 1	CCCCC [pentane] + CCn1cc[n+](C)c1.N#C[B-](C#N)(C#N)C#N
0.938 ± 0.059	0.949 ± 0.06	0.958 ± 0.06	0.966 ± 0.061	0.976 ± 0.061	0.983 ± 0.062	0.992 ± 0.062	c1ccsc1 [thiophene] + CCn1cc[n+](C)c1.N#C[B-](C#N)(C#N)C#N
53.4 ± 3.7	47.9 ± 3.3	44.1 ± 3	39.9 ± 2.7	36.7 ± 2.5	34.3 ± 2.3	31.7 ± 2.2	CCCCCCC [heptane] + CCn1cc[n+](C)c1.N#C[B-](C#N)(C#N)C#N
